We go through two molecules from patent US9598405B2, “Thiazole-substituted aminopyridines as spleen tyrosine kinase inhibitors” (Merck Sharp & Dohme Corp., priority 2012, dated 2017).

Structures are written as SMILES.

Series [1] addresses recombinant human GST-SYK (Homo sapiens (Human), UniProt P43405). The series can be described thus: Homogeneous Time-Resolved Fluorescence (HTRF) assay for the recombinant human Syk enzyme. It counts as biochemical. As to the method:
Homogeneous Time-Resolved Fluorescence (HTRF) Assay for the Recombinant Human Syk Enzyme
A recombinant GST-hSYK fusion protein was used to measure potency of compounds to inhibit human Syk activity. […] Final volume of the reaction was 10 μL. […] To quench the reaction and detect the phosphorylated product, 2 nM of a Europium-anti-phosphotyrosine antibody (Perkin Elmer #AD0161) and 70 nM SA-APC (Perkin-Elmer #CR130-100) were added together in 15 mM Tris pH 7.5, 40 mM EDTA, 0.01% tween 20. Final volume of the quenching solution was […]. The resulting HTRF signal was measured after 30 minutes on an EnVision (Perkin-Elmer) reader using a time-resolved fluorescence protocol.
Background: TR-FRET usually uses a lanthanide donor and a delayed reading to cut background.

The conditions of series [2]: phase II clinical trial, allergic rhinitis; cited from earlier work.
The test system of series [3] is PGD2. The settings on record: dosed intranasally, phase I/II study, allergic rhinitis; cited from earlier work.

In general, IC50 refers to the concentration that inhibits the measured activity by half. With `COCc1cc(Nc2cc(C(F)(F)F)ccn2)nc(-c2cnc([C@]3(O)CC[C@@H](C(=O)OC)C(C)(C)C3)s2)c1` (single isomer, unassigned) [Example 4.8, methyl (1R,4S or 1S,4R)-4-hydroxy-4-{5-[4-(methoxymethyl)-6-{[4-(trifluoromethyl)pyridin-2-yl]amino}pyridin-2-yl]-1,3-thiazol-2-yl}-2,2-dimethylcyclohexanecarboxylate], in series [1], the IC50 amounted to 1170 nM.
Turning to `Oc1cccc(Nc2ncc(F)c(Nc3cccc(O)c3)n2)c1` [Example R112], the efficacy versus placebo result in series [2] is “lack of efficacy”. Also, in series [3], the “change in PGD2” value is “statistically significant decrease” and the clinical safety result is reported as “safe across a range of indicators”.
